Source: patent US8598383B2, “Pharmaceutical composition for treating or preventing degenerative and inflammatory diseases” (Neurotech Pharmaceuticals Co., Ltd., priority 2006, dated 2013)

Legend:
diabetic symptoms = conditions: mouse administered streptozotocin; cited from earlier work
DSS-induced colitis = test: 5% dextran sulfate sodium (DSS) inflammatory intestinal disease model; format: in vivo, mouse
Procedure: FIG. 17 is results showing efficacy through 5% dextran sulfate sodium (DSS) model, inflammatory intestinal disease animal model. After treatment of DSS, 10, 25 or 50 mg/kg of compound 18 suspended in 10% vehicle was orally administered. Sham means colon of normal mouse, DSS means colon mouse treated with 5% DSS. The others are pictures of colon of mice administered with compound 18 at indicated dose.
FIG. 20 is an efficacy test result of compound 18 using DSS. After treatment of DSS, compound 18 (25 mg/kg) suspended in 10% vehicle was orally administered. After that, bloody excrement by colon injury, diarrhea and the degree of dirtiness were evaluated as feces score.
5% dextran sulfate sodium (DSS) model was used as inflammatory intestinal disease animal model. 5% DSS mixed with water was orally administered. 5% DSS model causes damage to epithelial cell, and ulcer in left colon and the decrease of colon length are mainly observed in the model. This model is simple and reproductive, and can regulate the degree of inflammation according to dose. Therefore, this model is often used for evaluating drug candidates.
DSS is continuously administered in water bottle. The 2-hydroxybenzoic acid derivative was suspended in 10% vehicle, and orally administered.

[1] = Single-dose toxicity test; format: in vivo; conditions: mouse, in vivo; single dose
Procedure: FIG. 32 is results of single dose toxicity testing of some 2-hydroxybenzoic acid derivatives according to the present invention.
Single-dose toxicities of the 2-hydroxybenzoic acid derivatives were evaluated.

BV2 microglia cell line = test: Suppressing effect on production of NO (LPS, Griess reagent); format: cell-based; conditions: Mus musculus, BV-2, LPS-treated BV2 microglia, 24 hours incubation
Procedure: Inhibiting effect of the 2-hydroxybenzoic acid derivative according to the present invention on NO, inflammatory factor intervening inflammation reaction was evaluated. BV2 microglia cell line was treated with lipopolysaccharide (LPS), a inflammation-inducing material of bacteria toxin, with inclusion of 10 uM, 30 uM or 100 uM of the present compound. After 24 hours of incubation, 50 ul of culture medium was collected in 96-well plate. Then, 50 ul of Griess reagent was added and incubated for 10 minutes at room temperature. The absorbance was evaluated by ELISA reader at 540 nm.

[2] = system: collagen-induced arthritis; test: Collagen-induced arthritis model (arthritic index); format: in vivo, mouse; conditions: 25 mg/kg/day intraperitoneal
Procedure: FIG. 15 is results showing efficacy through arthritis animal model induced by collagen. 25 mg/kg of compound 2, 3 or 18, or methotrexate (control, MTX, 1 mg/kg/week) was intraperitoneally injected after administration of collagen.
FIG. 16 is results showing efficacy of compounds 6 and 11 through arthritis animal model induced by collagen. Collagen was intradermally injected two times with 2 week-interval. One week later, compound 6, compound 11 and methotrexate (control) were intraperitoneally injected. Then, the animals were observed everyday for 2-3 weeks, and results was evaluated by arthritis index.
To evaluate the efficacy of the 2-hydroxybenzoic acid derivative, collagen-induced arthritis model (rheumarthritis animal model) was used. Bovine type II collagen was mixed with complete Freund's adjuvant to make an emulsion, and the emulsion was intradermally injected into the origin site of 8˜10 week-old DBA/1LacJ mouse tail. Intradermal boosting was performed by the same method 2 weeks later. 25 mg/kg/day of compounds 2, 3 and 18, 1 mg/kg/week of methotrexate (comparative example) or 10% vehicle (control) were intraperitoneally injected one week after the second intradermal injection of collagen (FIG. 15). Pictures of foot edema of normal rat (sham), collagen-administered rat (collagen) and compound 18-administered rat (compound 18, 25 mg/kg/day injection) were shown in FIG. 14.
In addition, 50 mg/kg/day of compounds 6 and 11, and 5 mg/kg/2 days of methotrexate (comparative example) were intraperitoneally injected. Phosphate buffered saline was injected as control (FIG. 16). For 2˜3 weeks, the degree of arthritis was observed everyday, and the result was evaluated according to the below arthritic index using edema.
4 paws were evaluated as from 0 to 4 point, Total points: 16

gastric mucous membrane = test: Safety test about induction of gastric mucous membrane damage; format: in vivo; conditions: oral, high dose; indomethacine, ibuprofen, celecoxib as control
Procedure: Test samples were orally administered at different doses to evaluate the degree of the gastric mucous membrane damage. Aspirin was used as control.
FIG. 2 is results showing degrees of the gastric mucous membrane damage. Test samples were orally administered at indicated doses. […] Indomethacine, ibuprofen and celecoxib were used as control.
Conventional NSAIDs have side effects causing damages to the gastric mucous membrane. Therefore, it was evaluated whether compound 2 having anti-inflammatory effect causes the gastric damage or not. 30, 100 or 300 mg/kg of aspirin was orally administered as control.

[3] = system: cerulein-induced pancreatitis; test: Cerulein-induced acute pancreatitis model; format: in vivo, wistar rat
Procedure: FIG. 21 is efficacy test results using acute pancreatitis model induced by cerulein. 50 ug/kg of cerulein was administered. Two hours later, edema was induced by administration of LPS. A-C are picture results, and D is graphs showing the weight of pancreas.
FIG. 22 is efficacy test results using acute pancreatitis model induced by cerulein. 50 ug/kg of cerulein was administered. Two hours later, edema was induced by administration of LPS. 25 mg/kg of compound 18 was administered, and the changes of amylase and lipase, pancreatic digestive enzymes, were quantified.
Cerulein-induced pancreatitis model was used as acute pancreatitis model. Cerulein is an analog of cholecystokinin and a hormone causing secretion of pancreatic digestive enzyme in pancreas. Digestive enzyme was over-secreted into pancreas by intraperitoneal injection of cerulein (50 ug/kg). LPS was injected 2 hours later to induce edema. When cerulein was administered, massive edema was observed on the basis of spleen. […] D of FIG. 21 is results showing the pancreas weight increased by the edema.
The model excessively increases digestive enzymes, which are released into blood. That is, the decrease of digestive enzyme in blood can be an indirect evidence for sample to reduce pancreatitis.
To confirm the protecting effect on inflammation, the levels of TNF-α and […], inflammatory cytokines, were evaluated. PGE2, the product of COX-2 (inflammation enzyme), were evaluated by ELISA method.

atherosclerosis = conditions: early formation of atherosclerotic lesion; cited from earlier work

For `C[C@@H](O)CCCCn1c(=O)c2c(ncn2C)n(C)c1=O` [Lisofylline], the “reduction of diabetic symptoms” value (diabetic symptoms) is listed as 50%.

With `CC(=O)Oc1ccc(NCCc2ccc(C(F)(F)F)cc2)cc1C(=O)O` [compound 18, 2-acetoxy-5-[2-(4-trifluoromethyl-phenyl)-ethylamino]-benzoic acid] the “length and width of colon” value (DSS-induced colitis; oral, 10, 25 or 50 mg/kg in 10% vehicle) was “significantly changed the length and width of the colon”, the “feces score (bloody excrement, diarrhea, dirtiness)” value (DSS-induced colitis; vs DSS only, compound 18 25 mg/kg oral) was “significantly decreased feces score” and the LD50 [1] was > 3000 mg/kg. The IC50 (BV2 microglia cell line) was 21.6 µM, the arthritic index [2] was “apparent reducing effect” and the “gastric mucous membrane damage” value (gastric mucous membrane) was “did not cause damage to gastric mucous membrane”. For the same molecule, the “amylase and lipase in plasma” value ([3]; 25 mg/kg) was “significantly reduced the increase”, the pancreas weight ([3]; 25 mg/kg) was “significantly reduced pancreas weight” and the pancreatic edema ([3]; 25 mg/kg) was “the edema was decreased”. For the same molecule, the “TNF-α, IL-1β and PGE2 (inflammation markers)” value ([3]; ELISA) was “significantly reduced these inflammation markers”.

For `COc1ccc2c(c1)c(CC(=O)O)c(C)n2C(=O)c1ccc(Cl)cc1` [indomethacine], the reduction of atherosclerosis (atherosclerosis) is given as 38-51%.
